The assay concerns the target T1, SGK3 (Homo sapiens, UniProt Q96BR1).
T1 sequence (Q96BR1 1-496): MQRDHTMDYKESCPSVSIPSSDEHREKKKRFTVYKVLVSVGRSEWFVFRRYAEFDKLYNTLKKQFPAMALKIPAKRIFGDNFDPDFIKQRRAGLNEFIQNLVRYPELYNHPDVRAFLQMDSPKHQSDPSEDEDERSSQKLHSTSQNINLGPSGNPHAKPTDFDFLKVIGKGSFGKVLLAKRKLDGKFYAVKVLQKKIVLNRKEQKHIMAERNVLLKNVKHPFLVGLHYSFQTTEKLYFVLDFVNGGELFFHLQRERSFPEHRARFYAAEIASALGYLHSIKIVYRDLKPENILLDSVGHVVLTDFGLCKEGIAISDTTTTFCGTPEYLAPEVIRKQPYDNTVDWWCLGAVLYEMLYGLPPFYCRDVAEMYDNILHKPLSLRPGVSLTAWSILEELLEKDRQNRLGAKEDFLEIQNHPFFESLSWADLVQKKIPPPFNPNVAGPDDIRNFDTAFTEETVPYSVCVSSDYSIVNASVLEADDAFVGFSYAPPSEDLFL
Put plainly: SGK3 degradation in HEK293 cells, immunoblot. The assay is classed as cell-based. Also noted: reduced endogenous SGK isoform or S6K1 expression when administered to HEK293 cells for 48 h; endogenous in cells; host or cells: HEK293. The note with it: HEK293, 8 h; cisSGK3-PROTAC1 up to 3 μM, SGK3-PROTAC1 0.1 μM. As to the method:
Figure 1 Design and cellular activity of first generation SGK3 PROTACs. (A) Structure of compound 14H, previously published by Sanofi as an inhibitor of SGK3. (B) Starting material for SGK PROTACs. […] (C) Structures of first generation SGK PROTACs. SGK and E3 ligase targeting motifs were joined by a 3xPEG linker to produce the PROTACs. (D) HEK293 cells were treated for 48 h with increasing concentrations of each PROTAC compound from 0.1 nM to 10 μM. Cell lysates were subjected to immunoblot analysis with the indicated antibodies, and SGK3 protein levels were quantified in Image Studio Lite software (Licor).
Figure 2 Design and cellular evaluation of second and third generation SGK PROTACs. (A) Chemical structure of compounds DAT5–12, expanding upon DAT1. (B) Chemical structure of cisSGK3-PROTAC1. (C) HEK293 cells were treated for 48 h with increasing concentrations of each PROTAC compound from 1 nM to 10 μM. Cell lysates were subjected to immunoblot analysis with the indicated antibodies, and SGK3 protein levels quantified in Image Studio Lite software. (D) HEK293 cells were treated for 48 h with increasing concentrations of each PROTAC compound from 1 nM to 10 μM. Cell lysates were subjected to immunoblot analysis with the indicated antibodies, and SGK3 and S6K1 protein levels were quantified in Image Studio Lite software. TEXT PRINTED IN THE PICTURE: (C) DAT1: % SGK3: 100 (48h Treatment (μM): 0); % SGK3: 94 (48h Treatment (μM): 0.001); % SGK3: 82 (48h Treatment (μM): 0.01); % SGK3: 70 (48h Treatment (μM): 0.1); % SGK3: 52 (48h Treatment (μM): 1); % SGK3: 31 (48h Treatment (μM): 10) | (C) DAT5: % SGK3: 100 (48h Treatment (μM): 0); % SGK3: 104 (48h Treatment (μM): 0.001); % SGK3: 82 (48h Treatment (μM): 0.01); % SGK3: 92 (48h Treatment (μM): 0.1); % SGK3: 73 (48h Treatment (μM): 1); % SGK3: 36 (48h Treatment (μM): 10) | (C) DAT6: % SGK3: 100 (48h Treatment (μM): 0); % SGK3: 105 (48h Treatment (μM): 0.001); % SGK3: 90 (48h Treatment (μM): 0.01); % SGK3: 71 (48h Treatment (μM): 0.1); % SGK3: 44 (48h Treatment (μM): 1); % SGK3: 20 (48h Treatment (μM): 10) | (C) DAT7: % SGK3: 100 (48h Treatment (μM): 0); % SGK3: 77 (48h Treatment (μM): 0.001); % SGK3: 80 (48h Treatment (μM): 0.01); % SGK3: 95 (48h Treatment (μM): 0.1); % SGK3: 37 (48h Treatment (μM): 1); % SGK3: 29 (48h Treatment (μM): 10) | (D) DAT8: % SGK3: 100 (48h Treatment (μM): 0); % SGK3: 97 (48h Treatment (μM): 0.001); % SGK3: 107 (48h Treatment (μM): 0.01); % SGK3: 34 (48h Treatment (μM): 0.1); % SGK3: 24 (48h Treatment (μM): 1); % SGK3: 19 (48h Treatment (μM): 10) | (D) DAT9: % SGK3: 100 (48h Treatment (μM): 0); % SGK3: 105 (48h Treatment (μM): 0.001); % SGK3: 71 (48h Treatment (μM): 0.01); % SGK3: 40 (48h Treatment (μM): 0.1); % SGK3: 11 (48h Treatment (μM): 1); % SGK3: 12 (48h Treatment (μM): 10) | (D) DAT10: % SGK3: 100 (48h Treatment (μM): 0); % SGK3: 100 (48h Treatment (μM): 0.001); % SGK3: 76 (48h Treatment (μM): 0.01); % SGK3: 54 (48h Treatment (μM): 0.1); % SGK3: 11 (48h Treatment (μM): 1); % SGK3: 9 (48h Treatment (μM): 10) | (D) DAT11: % SGK3: 100 (48h Treatment (μM): 0); % SGK3: 96 (48h Treatment (μM): 0.001); % SGK3: 97 (48h Treatment (μM): 0.01); % SGK3: 41 (48h Treatment (μM): 0.1); % SGK3: 32 (48h Treatment (μM): 1); % SGK3: 29 (48h Treatment (μM): 10) | (D) DAT12: % SGK3: 100 (48h Treatment (μM): 0); % SGK3: 106 (48h Treatment (μM): 0.001); % SGK3: 84 (48h Treatment (μM): 0.01); % SGK3: 79 (48h Treatment (μM): 0.1); % SGK3: 32 (48h Treatment (μM): 1); % SGK3: 29 (48h Treatment (μM): 10) DOUBTS OF THE COPYIST ABOUT THIS PICTURE: All % SGK3 values are quantification numbers printed under immunoblot lanes; each was assigned to a concentration by lane position / DAT9 and DAT10, % SGK3: the first numbers are printed run together ('100105', '100100') and were split as 100 | 105 and 100 | 100
Figure 3 Characterization of cellular activities of SGK3-PROTAC1 and cisSGK3-PROTAC1. […]
On the technique in general: A western blot detects proteins with antibodies after separation by electrophoresis.

Take `Cc1ccc(F)c(S(=O)(=O)Nc2ccc(-c3nc(OC[C@H]4CN(CCCCCCOCCOCCOCC(=O)N[C@H](C(=O)N5C[C@@H](O)C[C@H]5C(=O)NCc5ccc(-c6scnc6C)cc5)C(C)(C)C)CCO4)c4cn[nH]c4n3)cc2)c1` [cisSGK3-PROTAC1]: the “degradation of SGK3” value is given as “failed to induce degradation of SGK3”.

For the origin of these results see paper PMC6757289, “Design and Characterization of SGK3-PROTAC1, an Isoform Specific SGK3 Kinase PROTAC Degrader” (ACS Chemical Biology, 2019).
